We go through 15 molecules from patent US5502035A, “N-terminus modified analogs of LHRH” (Tap Holdings Inc., priority 1994, dated 1996).

For this assay, the target named is T1, LHRH (Rattus norvegicus, UniProt P30969).
T1 construct: endogenous in cells; host or cells: rat pituitary cells (own knowledge of the cited Haviv 1989 method)
T1 sequence (P30969 1-327): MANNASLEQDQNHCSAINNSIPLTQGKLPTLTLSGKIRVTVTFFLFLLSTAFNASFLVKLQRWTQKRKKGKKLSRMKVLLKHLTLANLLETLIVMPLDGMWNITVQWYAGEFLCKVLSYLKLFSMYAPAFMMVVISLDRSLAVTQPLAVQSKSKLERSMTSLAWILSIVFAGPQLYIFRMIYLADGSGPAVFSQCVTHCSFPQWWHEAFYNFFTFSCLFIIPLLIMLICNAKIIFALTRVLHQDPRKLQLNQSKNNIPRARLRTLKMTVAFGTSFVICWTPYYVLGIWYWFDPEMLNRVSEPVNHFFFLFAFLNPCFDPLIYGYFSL
The assay can be described thus: in vitro test for LHRH antagonist potency (pA2). Conditions: negative logarithm of the antagonist concentration required to shift the response curve produced by the agonist leuprolide to two-fold higher concentration. It counts as cell-based. An outline of the steps:
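Antagonism read against the agonist leuprolide on rat LHRH receptor; value is pA2, the −log of antagonist concentration that doubles the agonist concentration needed for the same response.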

Non-standard residues stand in square brackets, D forms with d. Residues, ends and D or L forms follow the SMILES beside them. *: point of attachment. Shikimoyl = O=C(C1=C[C@@H](O)[C@@H](O)[C@H](O)C1)*; Tetrahydrofuroyl(2R) = O=C([C@H]1CCCO1)*; dPhe(4-Cl) = N[C@H](Cc1ccc(Cl)cc1)C(=O)O; d2Nal = N[C@H](Cc1ccc2ccccc2c1)C(=O)O; Acetyl(3-pyridyl) = O=C(Cc1cccnc1)*; Lys(iPr) = CC(C)NCCCC[C@H](N)C(=O)O; NMeY = CN[C@@H](Cc1ccc(O)cc1)C(=O)O; dCit = NC(=O)NCCC[C@@H](N)C(=O)O; hArg = N=C(N)NCCCC[C@H](N)C(=O)O; d3Pal = N[C@H](Cc1cccnc1)C(=O)O; Isonicotinoyl = O=C(c1ccncc1)*; Nicotinoyl = O=C(c1cccnc1)*; Picolinoyl = O=C(c1ccccn1)*; X2 = O=C1CC[C@@H](C(=O)*)O1; X8 = O=C1CC[C@H](C(=O)*)O1; 2Furoyl = O=C(c1ccco1)*; X1 = O=C([C@@H]1CCCO1)*

For `CC(C)C[C@H](NC(=O)[C@@H](CCCCNC(=O)c1cccnc1)NC(=O)[C@H](Cc1ccc(O)cc1)NC(=O)[C@H](CO)NC(=O)[C@@H](Cc1cccnc1)NC(=O)[C@@H](Cc1ccc(Cl)cc1)NC(=O)[C@@H](Cc1ccc2ccccc2c1)NC(=O)C1=C[C@@H](O)[C@@H](O)[C@H](O)C1)C(=O)N[C@@H](CCCCNC(C)C)C(=O)N1CCC[C@H]1C(=O)N[C@H](C)C(N)=O` [Example 75, N-Shikimyl-D2Nal-D4ClPhe-D3Pal-Ser-Tyr-DLys(Nic)-Leu-Lys(Isp)-Pro-DAlaNH2] (Shikimoyl-[d2Nal][dPhe(4-Cl)][d3Pal]SY[dK](Nicotinoyl)L[Lys(iPr)]P[dA]-NH2), the Kb was 0.0112 nM. Turning to `CC(C)C[C@H](NC(=O)[C@@H](CCCNC(N)=O)NC(=O)[C@H](Cc1ccc(O)cc1)N(C)C(=O)[C@H](CO)NC(=O)[C@@H](Cc1cccnc1)NC(=O)[C@@H](Cc1ccc(Cl)cc1)NC(=O)[C@@H](Cc1ccc2ccccc2c1)NC(=O)[C@@H]1CCCO1)C(=O)N[C@@H](CCCNC(=N)N)C(=O)N1CCC[C@H]1C(=O)N[C@H](C)C(N)=O` [Example 76, N-(S)-Tetrahydofur-2-oyl-D2Nal-D4ClPhe-D3Pal-Ser-NMeTyr-DCit-Leu-Arg-Pro-DAlaNH2] (X1-[d2Nal][dPhe(4-Cl)][d3Pal]S[NMeY][dCit]LRP[dA]-NH2), the Kb was 0.0355 nM. The result for `CC(C)C[C@H](NC(=O)[C@@H](CCCNC(N)=O)NC(=O)[C@H](Cc1ccc(O)cc1)N(C)C(=O)[C@H](CO)NC(=O)[C@@H](Cc1cccnc1)NC(=O)[C@@H](Cc1ccc(Cl)cc1)NC(=O)[C@@H](Cc1ccc2ccccc2c1)NC(=O)[C@H]1CCCO1)C(=O)N[C@@H](CCCNC(=N)N)C(=O)N1CCC[C@H]1C(=O)N[C@H](C)C(N)=O` [Example 77, N-(R)-Tetrahydofur-2-oyl-D2Nal-D4ClPhe-D3Pal-Ser-NMeTyr-DCit-Leu-Arg-Pro-DAlaNH2] ({Tetrahydrofuroyl(2R)}-[d2Nal][dPhe(4-Cl)][d3Pal]S[NMeY][dCit]LRP[dA]-NH2) reads 0.0141 nM. The figure for `CC(C)C[C@H](NC(=O)[C@@H](CCCNC(N)=O)NC(=O)[C@H](Cc1ccc(O)cc1)N(C)C(=O)[C@H](CO)NC(=O)[C@@H](Cc1cccnc1)NC(=O)[C@@H](Cc1ccc(Cl)cc1)NC(=O)[C@@H](Cc1ccc2ccccc2c1)NC(=O)[C@H]1CCC(=O)O1)C(=O)N[C@@H](CCCNC(=N)N)C(=O)N1CCC[C@H]1C(=O)N[C@H](C)C(N)=O` [Example 78a, N-(R)-5-Oxo-tetrahydrofur-2-oyl-D2Nal-D4ClPhe-D3Pal-Ser-NMeTyr-DCit-Leu-Arg-Pro-DAlaNH2] (X8-[d2Nal][dPhe(4-Cl)][d3Pal]S[NMeY][dCit]LRP[dA]-NH2) is 0.0105 nM. The result for `CC(C)C[C@H](NC(=O)[C@@H](CCCNC(N)=O)NC(=O)[C@H](Cc1ccc(O)cc1)N(C)C(=O)[C@H](CO)NC(=O)[C@@H](Cc1cccnc1)NC(=O)[C@@H](Cc1ccc(Cl)cc1)NC(=O)[C@@H](Cc1ccc2ccccc2c1)NC(=O)[C@@H]1CCC(=O)O1)C(=O)N[C@@H](CCCNC(=N)N)C(=O)N1CCC[C@H]1C(=O)N[C@H](C)C(N)=O` [Example 78b, N-(S)-5-Oxo-tetrahydrofur-2-oyl-D2Nal-D4ClPhe-D3Pal-Ser-NMeTyr-DCit-Leu-Arg-Pro-DAlaNH2] (X2-[d2Nal][dPhe(4-Cl)][d3Pal]S[NMeY][dCit]LRP[dA]-NH2) reads 0.00832 nM; that for `CC(C)C[C@H](NC(=O)[C@@H](CCCNC(N)=O)NC(=O)[C@H](Cc1ccc(O)cc1)N(C)C(=O)[C@H](CO)NC(=O)[C@@H](Cc1cccnc1)NC(=O)[C@@H](Cc1ccc(Cl)cc1)NC(=O)[C@@H](Cc1ccc2ccccc2c1)NC(=O)C1=C[C@@H](O)[C@@H](O)[C@H](O)C1)C(=O)N[C@@H](CCCNC(=N)N)C(=O)N1CCC[C@H]1C(=O)N[C@H](C)C(N)=O` [Example 78c, N-Shikimyl-D2Nal-D4ClPhe-D3Pal-Ser-NMeTyr-DCit-Leu-Arg-Pro-DAlaNH2] (Shikimoyl-[d2Nal][dPhe(4-Cl)][d3Pal]S[NMeY][dCit]LRP[dA]-NH2), 0.0132 nM.

For the molecule `CC(C)C[C@H](NC(=O)[C@@H](CCCNC(N)=O)NC(=O)[C@H](Cc1ccc(O)cc1)N(C)C(=O)[C@H](CO)NC(=O)[C@@H](Cc1cccnc1)NC(=O)[C@@H](Cc1ccc(Cl)cc1)NC(=O)[C@@H](Cc1ccc2ccccc2c1)NC(=O)c1ccco1)C(=O)N[C@@H](CCCNC(=N)N)C(=O)N1CCC[C@H]1C(=O)N[C@H](C)C(N)=O` [Example 78d, N-2-Furoyl-D2Nal-D4ClPhe-D3Pal-Ser-NMeTyr-DCit-Leu-Arg-Pro-DAlaNH2] (2Furoyl-[d2Nal][dPhe(4-Cl)][d3Pal]S[NMeY][dCit]LRP[dA]-NH2), the Kb was 0.00794 nM. With `CC(C)C[C@H](NC(=O)[C@@H](CCCNC(N)=O)NC(=O)[C@H](Cc1ccc(O)cc1)N(C)C(=O)[C@H](CO)NC(=O)[C@@H](Cc1cccnc1)NC(=O)[C@@H](Cc1ccc(Cl)cc1)NC(=O)[C@@H](Cc1ccc2ccccc2c1)NC(=O)c1ccncc1)C(=O)N[C@@H](CCCNC(=N)N)C(=O)N1CCC[C@H]1C(=O)N[C@H](C)C(N)=O` [Example 78e, N-Isonicotinyl-D2Nal-D4ClPhe-D3Pal-Ser-NMeTyr-DCit-Leu-Arg-Pro-DAlaNH2] (Isonicotinoyl-[d2Nal][dPhe(4-Cl)][d3Pal]S[NMeY][dCit]LRP[dA]-NH2), the Kb was 0.0162 nM. Consider `CC(C)C[C@H](NC(=O)[C@@H](CCCNC(N)=O)NC(=O)[C@H](Cc1ccc(O)cc1)N(C)C(=O)[C@H](CO)NC(=O)[C@@H](Cc1cccnc1)NC(=O)[C@@H](Cc1ccc(Cl)cc1)NC(=O)[C@@H](Cc1ccc2ccccc2c1)NC(=O)c1ccccn1)C(=O)N[C@@H](CCCNC(=N)N)C(=O)N1CCC[C@H]1C(=O)N[C@H](C)C(N)=O` [Example 78f, N-Picolinoyl-D2Nal-D4ClPhe-D3Pal-Ser-NMeTyr-DCit-Leu-Arg-Pro-DAlaNH2] (Picolinoyl-[d2Nal][dPhe(4-Cl)][d3Pal]S[NMeY][dCit]LRP[dA]-NH2), for which the Kb was 0.0316 nM. The result for `CC(C)C[C@H](NC(=O)[C@@H](CCCNC(N)=O)NC(=O)[C@H](Cc1ccc(O)cc1)N(C)C(=O)[C@H](CO)NC(=O)[C@@H](Cc1cccnc1)NC(=O)[C@@H](Cc1ccc(Cl)cc1)NC(=O)[C@@H](Cc1ccc2ccccc2c1)NC(=O)c1cccnc1)C(=O)N[C@@H](CCCNC(=N)N)C(=O)N1CCC[C@H]1C(=O)N[C@H](C)C(N)=O` [Example 78g, N-Nicotinyl-D2Nal-D4ClPhe-D3Pal-Ser-NMeTyr-DCit-Leu-Arg-Pro-DAlaNH2] (Nicotinoyl-[d2Nal][dPhe(4-Cl)][d3Pal]S[NMeY][dCit]LRP[dA]-NH2) reads 0.00708 nM.

Turning to `CC(C)C[C@H](NC(=O)[C@@H](CCCNC(N)=O)NC(=O)[C@H](Cc1ccc(O)cc1)N(C)C(=O)[C@H](CO)NC(=O)[C@@H](Cc1cccnc1)NC(=O)[C@@H](Cc1ccc(Cl)cc1)NC(=O)[C@@H](Cc1ccc2ccccc2c1)NC(=O)Cc1cccnc1)C(=O)N[C@@H](CCCNC(=N)N)C(=O)N1CCC[C@H]1C(=O)N[C@H](C)C(N)=O` [Example 78h, N-(3-Pyridylacetyl)-D2Nal-D4ClPhe-D3Pal-Ser-NMeTyr-DCit-Leu-Arg-Pro-DAlaNH2] ({Acetyl(3-pyridyl)}-[d2Nal][dPhe(4-Cl)][d3Pal]S[NMeY][dCit]LRP[dA]-NH2), the Kb was 0.0316 nM.

As to `CC(C)C[C@H](NC(=O)[C@@H](CCCCNC(=O)C1=C[C@@H](O)[C@@H](O)[C@H](O)C1)NC(=O)[C@H](Cc1ccc(O)cc1)N(C)C(=O)[C@H](CO)NC(=O)[C@@H](Cc1cccnc1)NC(=O)[C@@H](Cc1ccc(Cl)cc1)NC(=O)[C@@H](Cc1ccc2ccccc2c1)NC(=O)C1=C[C@@H](O)[C@@H](O)[C@H](O)C1)C(=O)N[C@@H](CCCCNC(=N)N)C(=O)N1CCC[C@H]1C(=O)N[C@H](C)C(N)=O` [Example 79, N-Shikimyl-D2Nal-D4ClPhe-D3Pal-Ser-NMeTyr-DLys(Shik)-Leu-Harg-Pro-DAlaNH2] (Shikimoyl-[d2Nal][dPhe(4-Cl)][d3Pal]S[NMeY][dK](Shikimoyl)L[hArg]P[dA]-NH2), the Kb was 0.0195 nM. Turning to `CC(C)C[C@H](NC(=O)[C@@H](CCCCNC(=O)c1cccnc1)NC(=O)[C@H](Cc1ccc(O)cc1)N(C)C(=O)[C@H](CO)NC(=O)[C@@H](Cc1cccnc1)NC(=O)[C@@H](Cc1ccc(Cl)cc1)NC(=O)[C@@H](Cc1ccc2ccccc2c1)NC(=O)CNC(=O)[C@@H]1CCCO1)C(=O)N[C@@H](CCCCNC(C)C)C(=O)N1CCC[C@H]1C(=O)N[C@@H](C)C(N)=O` [Example 80, N-(S)-2-Tetrahydrofuroyl-Gly-D2Nal-D4ClPhe-D3Pal-Ser-NMeTyr-DLys(N-epsilon- Nicotinyl) -Leu-Lys(N-epsilon-Isopropyl)-Pro-AlaH2], the Kb is 0.0126 nM. As to `CC(C)C[C@H](NC(=O)[C@@H](CCCCNC(=O)c1cccnc1)NC(=O)[C@H](Cc1ccc(O)cc1)N(C)C(=O)[C@H](CO)NC(=O)[C@@H](Cc1cccnc1)NC(=O)[C@@H](Cc1ccc(Cl)cc1)NC(=O)[C@H](Cc1ccc2ccccc2c1)NC(=O)CNC(=O)[C@@H]1CCCO1)C(=O)N[C@@H](CCCCNC(C)C)C(=O)N1CCC[C@H]1C(=O)N[C@H](C)C(N)=O` [Example 81, (S)-2-Tetrahydrofuroyl-Gly-2Nal-D4ClPhe-D3Pal-Ser-NMeTyr-DLys(N-epsilon-Nicotinyl) -Leu-Lys(N-epsilon-Isopropyl)-Pro-DAlaNH2], the Kb was 0.891 nM.

On to `CC(C)C[C@H](NC(=O)[C@@H](CCCCNC(=O)c1cccnc1)NC(=O)[C@H](Cc1ccc(O)cc1)N(C)C(=O)[C@@H](CO)NC(=O)[C@@H](Cc1cccnc1)NC(=O)[C@@H](Cc1ccc(Cl)cc1)NC(=O)[C@@H](Cc1ccc2ccccc2c1)NC(=O)CNC(=O)[C@@H]1CCCO1)C(=O)N[C@@H](CCCCNC(C)C)C(=O)N1CCC[C@H]1C(=O)N[C@H](C)C(N)=O` [Example 82, N (S)-2-Tetrahydrofuroyl-Gly-D2Nal-D4ClPhe-D3Pal-DSer-NMeTyr-DLys(N-epsilon-Nicotinyl) -Leu-Lys(N-epsilon-Isopropyl)-Pro-DAlaNH2], for which the Kb is 1.12 nM.
